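These data come from cells grown in 96-well plates and exposed to compound for 48 hours at five concentrations. The concentration for 50% growth inhibition is given as GI50.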 Calls of active or inactive are those of the source. No stated cut-off is given here; in the data, active = GI50 up to about 1.1 µM and inactive = higher.
Tests used:
Test in all cases: growth of human tumour cells (NCI), 48 h
Hs-578T = test system: Hs-578T
BT-549 = test system: BT-549
T47D = test system: T47D
DU-145 = test system: DU-145
NCI/ADR-RES = test system: NCI/ADR-RES
MDA-MB-435 = test system: MDA-MB-435
SR = test system: SR
RXF 631 = test system: RXF 631

| Compound | GI50 (Hs-578T) | GI50 (NCI/ADR-RES) | GI50 (MDA-MB-435) | GI50 (SR) | further results |
| --- | --- | --- | --- | --- | --- |
| CCOC(=O)C1=C(C)N(c2ccc(OC)cc2)C2(O)C=CC(O)=C3C(=O)c4ccccc4C(=O)C312 (stereo not drawn) | 5.47 µM (inactive) | 3.01 µM (inactive) | 4.2 µM (inactive) | – | GI50 (BT-549): 14 µM (inactive); GI50 (T47D): 12.5 µM (inactive); GI50 (DU-145): 14.4 µM (inactive) |
| COc1cccc2c1C(=O)c1c(O)c3c(c(O)c1C2=O)CC(O)(C(=O)CO)CC3OC1CC(N)C(I)C(C)O1 (stereo not drawn) | – | 12.4 µM (inactive) | – | – | – |
| Nc1nc2cc(COc3ccc(C(=O)O)cc3)ccc2nc1-c1ccccc1 | > 10 µM (inactive) | – | > 10 µM (inactive) | > 10 µM (inactive) | GI50 (T47D): > 10 µM (inactive); GI50 (DU-145): > 10 µM (inactive) |
| c1ccc(C(c2ccccc2)[P+](c2ccccc2)(c2ccccc2)c2ccccc2)cc1 | – | 35.2 µM (inactive) | – | – | – |
| CCOC(=O)C1=C(C)N(NC(N)=O)C2(O)CCCC(=O)C12C (stereo not drawn) | – | – | – | > 10 µM (inactive) | GI50 (RXF 631): > 100 µM (inactive) |
| Cc1cc(N(CCOS(C)(=O)=O)CCOS(C)(=O)=O)ccc1C=O | 18.5 µM (inactive) | 11.7 µM (inactive) | 11.5 µM (inactive) | – | GI50 (BT-549): 15.2 µM (inactive) |
| CSc1nc(SC)c2cnn(CC3CO3)c2n1 (stereo not drawn) | – | 13.8 µM (inactive) | – | – | – |
| O=C(NN1C(=O)C(Cl)C1c1ccc([N+](=O)[O-])cc1)c1ccccc1O (stereo not drawn) | – | – | – | > 100 µM (inactive) | – |
| CC(=O)NNc1nc(C)c(C(=O)NNC(=O)C(=O)Nc2ccc([N+](=O)[O-])cc2[N+](=O)[O-])s1 | – | – | – | 81.1 µM (inactive) | GI50 (RXF 631): 68.9 µM (inactive) |

— ChEMBL document CHEMBL1201862, “PubChem BioAssay data set” (2004)
